Measurements as given in US11667652B2, “MCL1 inhibitors” (Gilead Sciences, Inc., priority 2019, dated 2023).
pEC50, pIC50: −log10 of the molar value. Read-outs that look alike come from different tables or passages of the source.

Key:
MCL1/Bim = MCL1/Bim (Homo sapiens (Human), UniProt Q07820); experiment: MCL1/Bim Binding AlphaLISA Assay; details: recombinant human 6xHis-MCL1 (171-327), biotinylated Bim peptide (51-76)
Summary of the method: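 AlphaLISA with 0.0625 nM human 6×His-MCL1 (171-327) and 0.0625 nM biotinylated Bim (51-76) peptide in 20 mM Hepes pH 7.5, 150 mM NaCl, 0.002% Brij 35, 1 mM DTT, 0.01% BSA. Compound preincubated with MCL1 1 h, Bim added 2 h, then acceptor and donor beads 1 h each; % inhibition versus DMSO and no-protein/peptide controls.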

SKBR3 cells = experiment: SKBR3 Cell Viability Assay; assay type: cell-based; details: CellTiter Glo, read-out: MCL1 CV SKBR3 EC50
Summary of the method: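 Viability was measured by CellTiter-Glo luminescence after 72 h at 37° C, 5% CO2. Each well held 6,000 SKBR3 cells in McCoy's 5A/10% FBS dispensed onto serially diluted compound. Percent inhibition is relative to DMSO and 10 μM puromycin controls.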

[1] = Homo sapiens, SK-BR-3, 72 hours

Sequence of MCL1/Bim (Q07820 171-327): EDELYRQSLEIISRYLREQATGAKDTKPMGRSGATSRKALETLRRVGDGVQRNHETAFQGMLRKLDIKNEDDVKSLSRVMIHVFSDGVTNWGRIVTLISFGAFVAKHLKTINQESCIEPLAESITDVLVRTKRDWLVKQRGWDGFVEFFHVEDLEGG

Row | Compound | pIC50 (MCL1/Bim) | pEC50 (SKBR3 cells; [1]) | pEC50 (SKBR3 cells; 72 hours)
1 | CO[C@H]1/C=C/C[C@H](C)C[S@@](=O)(Nc2cncc(C#N)n2)=NC(=O)c2ccc3c(c2)N(C[C@@H]2CC[C@H]21)C[C@@]1(CCCc2cc(Cl)ccc21)CO3 [Example 6] | 9.05 | 5.36 | 
2 | COc1nn(C)cc1C(=O)N[S@@]1(=O)=NC(=O)c2ccc3c(c2)N(C[C@@H]2CC[C@H]2[C@@H](OC)/C=C/[C@@H]2OCC[C@@H]1[C@H]2C)C[C@@]1(CCCc2cc(Cl)ccc21)CC3 [Example 149] | 9.42 | 6.54 | 
3 | COc1nn(C)cc1C(=O)N[S@@]1(=O)=NC(=O)c2ccc3c(c2)N(C[C@@H]2CC[C@H]2[C@H](OC)/C=C/[C@H](OC(C)=O)[C@H](C)[C@H]1C)C[C@@]1(CCCc2cc(Cl)ccc21)CO3 [Example 92] | 8.59 |  | 6.10
4 | COc1nn(C)cc1C(=O)N[S@@]1(=O)=NC(=O)c2ccc3c(n2)N(C[C@@H]2CC[C@H]2[C@@H](OC)/C=C/C[C@H](C)C1)C[C@@]1(CCCc2cc(Cl)ccc21)CO3 [Example 191] | 10.70 |  | 7.44
5 | COc1nn(C)cc1C(=O)N[S@@]1(=O)=NC(=O)c2ccc3c(c2)N(C[C@@H]2CC[C@H]2[C@H](O)/C=C/C[C@H](C)C1)C[C@@]1(CCCc2cc(Cl)ccc21)CO3 [Example 39] | 9.70 | 6.83 | 
6 | C=CCO[C@@H]1/C=C/C[C@H](C)C[S@@](=O)(NC(=O)c2cn(C)nc2OC)=NC(=O)c2ccc3c(c2)N(C[C@@H]2CC[C@H]21)C[C@@]1(CCCc2cc(Cl)ccc21)CO3 [Example 55] | 9.48 |  | 6.37
7 | CO[C@H]1/C=C/C[C@H](C)C[S@@](=O)(NC(=O)c2cn(C)nc2N2CCN(C3COC3)CC2)=NC(=O)c2ccc3c(c2)N(C[C@@H]2CC[C@H]21)C[C@@]1(CCCc2cc(Cl)ccc21)CO3 [Example 24] | 10.59 | 7.99 | 
8 | COc1nn(C)cc1C(=O)N[S@@]1(=O)=NC(=O)c2ccc3c(c2)N(C[C@@H]2CC[C@H]2[C@@](O)(CC(=O)N2CCN(C4COC4)CC2)/C=C/C[C@H](C)C1)C[C@@]1(CCCc2cc(Cl)ccc21)CO3 [Example 104] | 10.47 |  | 7.27
9 | CCn1cc(C(=O)N[S@@]2(=O)=NC(=O)c3ccc4c(c3)N(C[C@@H]3CC[C@H]3[C@@H](OC)/C=C/C[C@H](C)C2)C[C@]2(CO4)C[C@@H]3C[C@@H]3c3cc(Cl)ccc32)cn1 [Example 164] | 9.98 | 7.06 | 
10 | CO[C@H]1/C=C/C[C@H](C)[C@@H](C)[S@@](=O)(NC(=O)c2cc3n(c2)CCOC3)=NC(=O)c2ccc3c(n2)N(C[C@@H]2CC[C@H]21)C[C@]1(CO3)C[C@@H]2C[C@@H]2c2cc(Cl)ccc21 [Example 206] | 9.64 | 6.85 | 
11 | COCC#CCO[C@H]1/C=C/[C@H](OC)[C@@H]2CC[C@H]2CN2C[C@@]3(CCCc4cc(Cl)ccc43)COc3ccc(cc32)C(=O)N=[S@](=O)(NC(=O)c2cn(C)nc2OC)C[C@H]1C [Example 75] | 9.66 | 6.77 | 
12 | COc1nn(C)cc1C(=O)N[S@@]1(=O)=NC(=O)c2ccc3c(c2)N(C[C@@H]2CC[C@H]2[C@@H](OC)CC2CC(CCN(C)C)OC2[C@H](C)C1)C[C@@]1(CCCc2cc(Cl)ccc21)CO3 (some centres unmarked) [Example 143] | 10.43 |  | 7.43
13 | COc1nn(C)cc1C(=O)N[S@@]1(=O)=NC(=O)c2ccc3c(c2)N(C[C@@H]2CC[C@H]2[C@@](O)(C#CCN(C)C)/C=C/C[C@H](C)C1)C[C@@]1(CCCc2cc(Cl)ccc21)CO3 [Example 108] | 10.32 |  | 8.22
14 | CO[C@H]1/C=C/C[C@H](C)C[S@@](=O)(Nc2ncnc3c2cnn3C)=NC(=O)c2ccc3c(c2)N(C[C@@H]2CC[C@H]21)C[C@@]1(CCCc2cc(Cl)ccc21)CO3 [Example 4] | 9.71 | 6.62 | 
15 | COc1nn(C)cc1C(=O)N[S@@]1(=O)=NC(=O)c2ccc3c(c2)N(C[C@@H]2CC[C@H]2[C@@H](OC(=O)CCC2CCOCC2)/C=C/C[C@H](C)C1)C[C@@]1(CCCc2cc(Cl)ccc21)CO3 [Example 56] | 9.80 | 7.03 | 
16 | CO[C@H]1/C=C/C[C@H](C)C[S@@](=O)(Nc2cnc(C#N)cn2)=NC(=O)c2ccc3c(c2)N(C[C@@H]2CC[C@H]21)C[C@@]1(CCCc2cc(Cl)ccc21)CO3 [Example 5] | 9.23 | 5.38 | 
17 | COc1nn(C)cc1C(=O)N[S@@]1(=O)=NC(=O)c2ccc3c(c2)N(C[C@@H]2CC[C@H]2[C@@H](OCCN2CC(OC)C2)/C=C/C[C@H](C)C1)C[C@@]1(CCCc2cc(Cl)ccc21)CO3 [Example 61] | 9.87 | 7.71 | 
18 | COc1nn(C)cc1C(=O)N[S@@]1(=O)=NC(=O)c2ccc3c(c2)N(C[C@@H]2CC[C@H]2[C@](CN2CCN4CCOC[C@@H]4C2)(OC)/C=C/C[C@H](C)C1)C[C@@]1(CCCc2cc(Cl)ccc21)CO3 [Example 111] | 9.68 | 7.58 | 
19 | COc1nn(C)cc1C(=O)N[S@@]1(=O)=NC(=O)c2ccc3c(c2)N(C[C@@H]2CC[C@H]2[C@@](CN2CC(OC)C2)(OC)/C=C/C[C@H](C)C1)C[C@@]1(CCCc2cc(Cl)ccc21)CO3 [Example 117] | 10.17 | 7.62 | 
20 | CO[C@H]1/C=C/C[C@H](C)[C@@H](C)[S@@](=O)(NC(=O)c2cnn(C)c2)=NC(=O)c2ccc3c(n2)N(C[C@@H]2CC[C@H]21)C[C@@]1(CCCc2cc(Cl)ccc21)CO3 [Example 200] | 10.30 | 7.68 | 
21 | COc1nn(C)cc1C(=O)N[S@@]1(=O)=NC(=O)c2ccc3c(c2)N(C[C@@H]2CC[C@H]2[C@@H]2/C=C/[C@H](OCCCC(=O)O2)[C@H](C)C1)C[C@@]1(CCCc2cc(Cl)ccc21)CO3 [Example 156] | 9.41 |  | 6.43
22 | COc1nn(C)cc1C(=O)N[S@@]1(=O)=NC(=O)c2ccc3c(c2)N(C[C@@H]2CC[C@H]2[C@@H](OC)/C=C/[C@H](OC(C)=O)[C@H](C)[C@H]1C)C[C@@]1(CCCc2cc(Cl)ccc21)CO3 [Example 91] | 9.75 |  | 7.05
23 | COc1nn(C)cc1C(=O)N[S@@]1(=O)=NC(=O)c2ccc3c(c2)N(C[C@@H]2CC[C@H]2[C@@H](OC)C[C@H]2CCO[C@@H]2[C@H](C)C1)C[C@@]1(CCCc2cc(Cl)ccc21)CO3 [Example 135] | 10.24 | 7.04 | 
24 | COc1nn(C)cc1C(=O)N[S@@]1(=O)=NC(=O)c2ccc3c(c2)N(C[C@@H]2CC[C@H]2[C@](O)(CC(=O)N2CCN(C)CC2)/C=C/C[C@H](C)C1)C[C@@]1(CCCc2cc(Cl)ccc21)CO3 [Example 101] | 10.59 |  | 7.57
25 | COc1nn(C)cc1C(=O)N[S@@]1(=O)=NC(=O)c2ccc3c(c2)N(C[C@@H]2CC[C@H]2[C@@H](OC)C[C@H]2C[C@H](CCN(C)C)O[C@@H]2[C@H](C)C1)C[C@@]1(CCCc2cc(Cl)ccc21)CO3 [Example 142] | 10.22 |  | 6.98
26 | COc1nn(C)cc1C(=O)N[S@@]1(=O)=NC(=O)c2ccc3c(c2)N(C[C@@H]2CC[C@H]2[C@H](OC)/C=C/[C@@](C)(O)[C@H](C)C1)C[C@@]1(CCCc2cc(Cl)ccc21)CO3 [Example 121] | 10.33 |  | 7.17
27 | COc1nn(C)cc1C(=O)N[S@@]1(=O)=NC(=O)c2ccc3c(c2)N(C[C@@H]2CC[C@H]2[C@](O)(CC(=O)N2CCN(C4COC4)CC2)/C=C/C[C@H](C)C1)C[C@@]1(CCCc2cc(Cl)ccc21)CO3 [Example 105] | 9.95 |  | 6.79
28 | CO[C@H]1/C=C/C[C@H](C)[C@@H](C)[S@@](=O)(NC(=O)c2cnn(C3COC3)c2)=NC(=O)c2ccc3c(n2)N(C[C@@H]2CC[C@H]21)C[C@@]1(CCCc2cc(Cl)ccc21)CO3 [Example 201] | 10.00 | 7.07 | 
